{
  "source": "paper PMC7495385",
  "about": "“Role of Escape Mutant-Specific T Cells in Suppression of HIV-1 Replication and Coevolution with HIV-1” (Journal of Virology, 2020)",
  "format_in_all_cases": "cell-based, human",
  "key": {"[1]": {"test_system": "RI8-6T-specific T cell lines (KI-906)", "test": "ICS assay, 721.221-B*52:01 cells prepulsed with peptide, T cell lines from KI-906", "details": "two RI8-6T-specific T cell lines from KI-906 (Nov 2010, Aug 2013); 2 h, then brefeldin A 4 h at 37°C; IFN-γ+ of CD8+ T cells; means with SD (n = 3)", "description": "(§1) PBMCs were stained with PE- or APC-conjugated tetramers, FITC-conjugated anti-CD3 (Dako, Glostrup, Denmark), Pacific blue-conjugated anti-CD8 MAb (BD Biosciences), and 7-AAD (BD Pharmingen), after which CD3^+ CD8^+ 7AAD^− tetramer^+ T cells were sorted in U-bottomed 96-well microtiter plates (1 cell/well for T cell clones and 100 to 500 cells/well for T cell lines) by using a FACSAria (BD Biosciences). The sorted cells were stimulated with the corresponding epitope peptide and cultured as previously described ([51]). After 2 to 3 weeks in culture, epitope-specific CD8^+ T cells were used in functional assays after their purity had been confirmed by flow cytometry analysis using tetramers.\n(§2) 721.221 cells prepulsed with HIV-1 epitope peptide or 721.221 cells infected with HIV-1 were cocultured with T cell clones or lines in a 96-well plate for 2 h at 37°C. Brefeldin A (10 μg/ml) was then added, and the cells were incubated further for 4 h at 37°C. The cells were then fixed with 4% paraformaldehyde and incubated in permeabilization buffer (0.1% saponin–10% fetal bovine serum [FBS]–phosphate-buffered saline [PBS]), after which they were stained with APC-conjugated anti-CD8 MAb (Dako, Denmark) followed by FITC-conjugated anti-IFN-γ MAb (BD Biosciences). The percentage of IFN-γ-producing cells among the CD8^+ T cell population was determined by use of the FACSCanto II."}, "[2]": {"test_system": "cross-reactive T cell clone 8F (KI-855)", "test": "ICS assay, 721.221-B*52:01 cells prepulsed with peptide, clone 8F from KI-855", "details": "cross-reactive clone 8F from KI-855; 2 h, then brefeldin A 4 h at 37°C; IFN-γ; means with SD (n = 3)", "description": "as §1, §2"}, "[3]": {"test_system": "RI8-6T-specific T cell clone 2F (KI-855)", "test": "ICS assay, 721.221-B*52:01 cells prepulsed with peptide, clone 2F from KI-855", "details": "RI8-6T-specific T cell clone 2F from KI-855; 2 h, then brefeldin A 4 h at 37°C; IFN-γ; means with SD (n = 3)", "description": "as §1, §2"}, "[4]": {"test_system": "HLA-B*52:01-restricted CD8+ T cells (PBMCs of HIV-1 subtype B-infected individuals)", "test": "IFN-γ ELISPOT assay, T cell responses to peptides in HLA-B*52:01+ individuals", "details": "positive >200 spots/10^6 CD8+ T cells", "method": "Ex vivo gamma interferon (IFN-γ) ELISPOT assays were performed as previously described ([6], [49]). The number of spots for a T cell response to each peptide was finally calculated by subtracting the number of spots in wells without peptides. The mean + 3 standard deviations (SD) of the spot number of samples from 13 HIV-1 naive individuals for the peptides was 162 spots/10^6 CD8^+ T cells ([6], [49]). Therefore, we defined >200 spots/10^6 CD8^+ T cells as positive responses."}},
  "data": [
    {"sequence": "RMYSPTSI [RI8-6T]", "values": [
      {"measurement": "recognition of 721.221-B*52:01 cells prepulsed with peptide", "setting": "[1]", "value": "recognized"},
      {"measurement": "recognition of 721.221-B*52:01 cells prepulsed with peptide", "setting": "[2]", "value": "effectively recognized"},
      {"measurement": "recognition of 721.221-B*52:01 cells prepulsed with peptide", "setting": "[3]", "value": "effectively recognized"},
      {"measurement": "number of individuals with epitope-specific T cells detected", "setting": "[4]; 12 HLA-B*52:01+ individuals infected with Gag280V virus, IFN-γ ELISPOT", "value": 4, "unit": "individuals"},
      {"measurement": "T cell response to peptide in individual KI-809", "setting": "[4]; PBMCs from wild-type virus-infected KI-809, ELISPOT", "value": "strong T cell response"}
    ]}
  ]
}
